Source: PubChem BioAssay AID330 (DTP/NCI, 2004)
Several values for one entry are separate records, joined by “and”; a condition that tells them apart may be missing. Identical values can stand only once. Toxic doses and inconclusive results are not listed.

Tested on: P388 leukemia ip, CD2F1 mice, survival T/C
Test: NCI In Vivo Anticancer Drug Screen. Data for tumor model P388 Leukemia (intraperitoneal) in CD2F1 (CDF1) mice
Details: endpoint: median survival time, higher = longer survival
Summary of the method: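 Mice carrying the transplanted tumor received test compound or vehicle. Survival was recorded in each group, and the value is the treated-group measurement divided by that of the vehicle-treated control group.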

[1] = dose: 25.0 mg/kg/injection, schedule: Q01DX009 (ip), vehicle: saline
[2] = dose: 100.0 mg/kg/injection, schedule: Q01DX009 (ip), vehicle: saline with Tween-80
[3] = dose: 200.0 mg/kg/injection, schedule: Q01DX009 (ip), vehicle: saline with Tween-80
[4] = dose: 400.0 mg/kg/injection, schedule: Q01DX009 (ip), vehicle: saline with Tween-80

S=C(Nc1ccccc1)Nc1ncn[nH]1
T/C (dose: 50.0 mg/kg/injection, schedule: Q01DX005 (ip), vehicle: Klucel (hydroxypropylcellulose) (HPC)): 101 % of control
T/C (dose: 100.0 mg/kg/injection, schedule: Q01DX005 (ip), vehicle: Klucel (hydroxypropylcellulose) (HPC)): 100 % of control
T/C (dose: 200.0 mg/kg/injection, schedule: Q01DX005 (ip), vehicle: Klucel (hydroxypropylcellulose) (HPC)): 99 % of control

CC(=O)O[C@@]1(C)OC(=O)[C@@]2(c3ccccc3)N(C(C)=O)C(C)=C(C#N)[C@@]12C#N
T/C (dose: 50.0 mg/kg/injection, schedule: Q01DX005 (ip), vehicle: saline with Tween-80): 100 % of control
T/C (dose: 100.0 mg/kg/injection, schedule: Q01DX005 (ip), vehicle: saline with Tween-80): 106 % of control
T/C (dose: 200.0 mg/kg/injection, schedule: Q01DX005 (ip), vehicle: saline with Tween-80): 97 % of control

O=c1[nH]cnc2ncccc12
T/C (dose: 12.5 mg/kg/injection, schedule: Q01DX009 (ip), vehicle: Klucel (hydroxypropylcellulose) (HPC)): 104 % of control
T/C (dose: 25.0 mg/kg/injection, schedule: Q01DX009 (ip), vehicle: Klucel (hydroxypropylcellulose) (HPC)): 110 % of control
T/C (dose: 50.0 mg/kg/injection, schedule: Q01DX009 (ip), vehicle: Klucel (hydroxypropylcellulose) (HPC)): 112 % of control
T/C (dose: 100.0 mg/kg/injection, schedule: Q01DX009 (ip), vehicle: Klucel (hydroxypropylcellulose) (HPC)): 87 % of control

CCN(CC)C1CC(O[C@H]2C[C@](O)(C(C)=O)Cc3c(O)c4c(c(O)c32)C(=O)c2c(OC)cccc2C4=O)OC(C)C1O (stereo partly drawn)
T/C (dose: 0.25 mg/kg/injection, schedule: Q01DX009 (ip), vehicle: water): 104 % of control
T/C (dose: 0.5 mg/kg/injection, schedule: Q01DX009 (ip), vehicle: water): 114 % of control
T/C (dose: 4.0 mg/kg/injection, schedule: Q01DX009 (ip), vehicle: water): 174 % of control and 183 % of control
T/C (dose: 6.0 mg/kg/injection, schedule: Q04DX003 (ip), vehicle: water): 117 % of control
T/C (dose: 8.0 mg/kg/injection, schedule: Q01DX009 (ip), vehicle: water): 100 % of control
T/C (dose: 20.0 mg/kg/injection, schedule: Q04DX003 (ip), vehicle: water): 112 % of control
T/C (dose: 33.3 mg/kg/injection, schedule: Q04DX003 (ip), vehicle: water): 96 % of control
T/C (dose: 48.0 mg/kg/injection, schedule: Q04DX003 (ip), vehicle: water): 124 % of control
T/C (dose: 96.0 mg/kg/injection, schedule: Q04DX003 (ip), vehicle: water): 93 % of control

CCn1c(O)c(N=NC(=S)SCc2ccccc2)c2ccccc21
T/C (dose: 1.56 mg/kg/injection, schedule: Q01DX009 (ip), vehicle: suspension in saline): 97 % of control
T/C (dose: 3.12 mg/kg/injection, schedule: Q01DX009 (ip), vehicle: suspension in saline): 101 % of control
T/C (dose: 6.25 mg/kg/injection, schedule: Q01DX009 (ip), vehicle: suspension in saline): 87 % of control and 97 % of control
T/C [1]: 94 % of control

CCCCCCCCCCC(=O)CCCC
T/C [2]: 109 % of control
T/C (dose: 100.0 mg/kg/injection, schedule: Q04DX003 (ip), vehicle: saline with Tween-80): 100 % of control
T/C [3]: 104 % of control
T/C (dose: 200.0 mg/kg/injection, schedule: Q04DX003 (ip), vehicle: saline with Tween-80): 95 % of control
T/C [4]: 109 % of control
T/C (dose: 400.0 mg/kg/injection, schedule: Q04DX003 (ip), vehicle: saline with Tween-80): 95 % of control

CC(=O)OCC1OC([Se-])C(OC(C)=O)C(OC(C)=O)C1OC(C)=O.N#CCC[PH+](CCC#N)CCC#N.[Au+] (stereo not drawn)
T/C (dose: 60.0 mg/kg/injection, schedule: Q01DX005 (ip), vehicle: saline with Tween-80): 98 % of control

CN1CCC2(CC1)COCc1ccccc12
T/C (dose: 25.0 mg/kg/injection, schedule: Q01DX009 (ip), vehicle: saline with Tween-80): 101 % of control
T/C (dose: 50.0 mg/kg/injection, schedule: Q01DX009 (ip), vehicle: saline with Tween-80): 104 % of control

CCN(CC)CCCOC(=O)c1ccc(N)cc1
T/C (dose: 12.5 mg/kg/injection, schedule: Q01DX009 (ip), vehicle: saline): 100 % of control
T/C (dose: 12.5 mg/kg/injection, schedule: Q04DX003 (ip), vehicle: saline): 91 % of control
T/C [1]: 109 % of control
T/C (dose: 25.0 mg/kg/injection, schedule: Q04DX003 (ip), vehicle: saline): 91 % of control
T/C (dose: 50.0 mg/kg/injection, schedule: Q01DX009 (ip), vehicle: saline): 104 % of control
T/C (dose: 50.0 mg/kg/injection, schedule: Q04DX003 (ip), vehicle: saline): 87 % of control

O=[N+]([O-])c1cccc(OCCOc2ccccc2)c1
T/C (dose: 100.0 mg/kg/injection, schedule: Q01DX009 (ip), vehicle: other): 110 % of control
T/C (dose: 200.0 mg/kg/injection, schedule: Q01DX009 (ip), vehicle: other): 105 % of control

CN(NC(=O)CCl)c1ccc([N+](=O)[O-])cc1[N+](=O)[O-]
T/C [2]: 118 % of control
T/C [3]: 108 % of control
T/C [4]: 94 % of control
